Assays:
Type in all cases: functional
Mus musculus [1] = assay: Analgesic activity in Kunming Mus musculus (mouse) assessed as increase in pain threshold at 200 mg/kg, po after 1 hr by hot plate method (reference value: 4.2%)
Mus musculus [2] = assay: Analgesic activity in Kunming Mus musculus (mouse) assessed as inhibition of acetic acid-induced writhing at 200 mg/kg, po administered 1 hr prior to acetic acid challenge measured for 15 min relative to untreated control
Rattus norvegicus = assay: Anti-inflammatory activity in Wistar Rattus norvegicus (rat) assessed as inhibition of carrageenan-induced paw edema at 200 mg/kg, po administered 1 hr prior to carrageenan-challenge measured after 3 hr relative to untreated control
Mus musculus [3] = assay: Anti-inflammatory activity in Kunming Mus musculus (mouse) assessed as inhibition of xylene-induced ear swelling at 200 mg/kg, po administered 1 hr prior to xylene challenge measured after 30 min relative to untreated control

SMILES | Activity (Mus musculus [1]) | inhibition in vivo at 200 mg/kg (Mus musculus [2]) | inhibition in vivo at 200 mg/kg (Rattus norvegicus) | inhibition in vivo at 200 mg/kg (Mus musculus [3])
Cc1cccc(N(C)CC2CCC/C(=C\c3ccc(S(C)(=O)=O)cc3)C2=O)c1 (configuration not stated) | 109.98% | 72.8% | 36.2% | 36.7%
Cc1ccc(NCC2CCC/C(=C\c3ccccc3)C2=O)cc1 (configuration not stated) | 166.19% | 82.8% | 72.3% | 56.4%
CN(CC1CCC/C(=C\c2ccccc2)C1=O)c1ccccc1 (configuration not stated) | 109.59% | 69.7% | 76.6% | 49.7%
Cc1ccc(N(C)CC2CCC/C(=C\c3ccccc3)C2=O)cc1 (configuration not stated) | 146.12% | 81% | 25.5% | 18.2%
Cc1cccc(N(C)CC2CCC/C(=C\c3ccccc3)C2=O)c1 (configuration not stated) | 108.45% | 76.7% | 46.8% | 44.9%
Cc1ccc(/C=C2\CCCC(CN(C)c3ccccc3)C2=O)cc1 (configuration not stated) | 79.04% | 68.2% | 44.7% | 39.5%
Cc1ccc(/C=C2\CCCC(CN(C)c3ccc(C)cc3)C2=O)cc1 (configuration not stated) | 71.6% | 76.5% | 38.3% | 27.6%
Cc1ccc(/C=C2\CCCC(CN(C)c3cccc(C)c3)C2=O)cc1 (configuration not stated) | 75.5% | 75.8% | 36.2% | 35.4%
CN(CC1CCC/C(=C\c2ccc(S(C)(=O)=O)cc2)C1=O)c1ccccc1 (configuration not stated) | 142.7% | 81% | 51.1% | 46.9%
Cc1ccc(N(C)CC2CCC/C(=C\c3ccc(S(C)(=O)=O)cc3)C2=O)cc1 (configuration not stated) | 155.12% | 84.5% | 31.9% | 27%
Cc1ccc(N(C)CC2CCC/C(=C\c3ccccc3)C2(O)c2ccccc2)cc1 (racemic) | 70.08% | 64.2% | 59.6% | 66.7%
Cc1cccc(N(C)CC2CCC/C(=C\c3ccccc3)C2(O)c2ccccc2)c1 (racemic) | 83.22% | 70.6% | 36.2% | 23.1%
COc1cccc(C2(O)/C(=C/c3ccccc3)CCCC2CN(C)c2ccccc2)c1 (racemic) | 162.71% | 82.2% | 38.3% | 34.7%
COc1cccc(C2(O)/C(=C/c3ccccc3)CCCC2CN(C)c2ccc(C)cc2)c1 (racemic) | 110.54% | 77.8% | 57.5% | 41.5%
COc1cccc(C2(O)/C(=C/c3ccccc3)CCCC2CN(C)c2cccc(C)c2)c1 (racemic) | 116.52% | 79.9% | 44.7% | 36%
COc1ccc(C2(O)/C(=C/c3ccccc3)CCCC2CN(C)c2ccccc2)cc1 (racemic) | 121.45% | 75.7% | 38.3% | 26.5%
COc1ccc(C2(O)/C(=C/c3ccccc3)CCCC2CN(C)c2ccc(C)cc2)cc1 (racemic) | 117.46% | 78.7% | 21.3% | 26.5%
COc1cccc(C2(C)/C(=C/c3ccc(C)cc3)CCCC2CN(C)c2ccccc2)c1 (racemic) | 153.01% | 80.9% | 25.5% | 18%
COc1cccc(C2(O)/C(=C/c3ccc(C)cc3)CCCC2CN(C)c2ccc(C)cc2)c1 (racemic) | 125.34% | 81.6% | 21.3% | 22.9%
COc1ccc(C2(O)/C(=C/c3ccc(C)cc3)CCCC2CN(C)c2ccccc2)cc1 (racemic) | 106.84% | 72.1% | 17% | 16.3%
COc1ccc(C2(O)/C(=C/c3ccc(C)cc3)CCCC2CN(C)c2ccc(C)cc2)cc1 (racemic) | 93.41% | 62.2% | 29.8% | 29.9%
COc1ccc(C2(O)/C(=C/c3ccc(C)cc3)CCCC2CN(C)c2cccc(C)c2)cc1 (racemic) | 93.52% | 74.2% | 29.8% | 24.5%
CC(C)Cc1ccc(C(C)C(=O)O)cc1 (configuration not stated) [IBUPROFEN] | 158.56% | 84.1% | 53.2% | 40.1%

— ChEMBL document CHEMBL3046808, “Novel 2-(E)-substituted benzylidene-6-(N-substituted aminomethyl)cyclohexanones and cyclohexanols as analgesic and anti-inflammatory agents” (2013)
